Assay results as given in PMC5601486, “Identification of 4-phenylquinolin-2(1H)-one as a specific allosteric inhibitor of Akt” (Scientific Reports, 2017).

Tests used:
Assay in all cases: KINOMEscan
Details in all cases: 50000 nM
[1] = test system: EGFR(L858R)
Description: KINOMEscan™ selectivity screen
(§1) The assay was perfor med at DiscoveRx Corporation according the methods published previously5. Briefly, Kinase-tagged T7 phage strains were grown in parallel in an E. coli host derived from the BL21 strain. E. coli were grown to log-phase and infected with T7 phage from a frozen stock and incubated with shaking at 32°C until lysis (90-150 minutes). The kinases were produced in HEK-293 cells and subsequently tagged with DNA for qPCR detection. Streptavidin-coated magnetic beads were treated with biotinylated small molecule ligands to generate affinity resins for kinase
(§2) inhibitor or DMSO control was performed in polypropylene 384-well plates for 1 hr at room temperature. After wash with PBS buffer containing 0.05% Tween 20, the beads were incubated in elution buffer (PBS containing 0.05 % Tween 20 and 0.5 μM non-biotinylated affinity ligand) for 30 minutes at room temperature. The kinase concentration in the eluates was measured by qPCR.

[2] = test system: PIK4CB
Description: KINOMEscan™ selectivity screen
as §1, §2

[3] = test system: MINK
Description: KINOMEscan™ selectivity screen
as §1, §2

[4] = test system: RIOK3
Description: KINOMEscan™ selectivity screen
as §1, §2

[5] = test system: S6K1
Description: KINOMEscan™ selectivity screen
as §1, §2

[6] = test system: HIPK4
Description: KINOMEscan™ selectivity screen
as §1, §2

[7] = test system: RIPK4
Description: KINOMEscan™ selectivity screen
as §1, §2

[8] = test system: TESK1
Description: KINOMEscan™ selectivity screen
as §1, §2

[9] = test system: ERK3
Description: KINOMEscan™ selectivity screen
(§3) Briefly, Kinase-tagged T7 phage strains were grown in parallel in an E. coli host derived from the BL21 strain. E. coli were grown to log-phase and infected with T7 phage from a frozen stock and incubated with shaking at 32°C until lysis (90-150 minutes). The kinases were produced in HEK-293 cells and subsequently tagged with DNA for qPCR detection. Streptavidin-coated magnetic beads were treated with biotinylated small molecule ligands to generate affinity resins for kinase
as §2

[10] = test system: BTK
Description: KINOMEscan™ selectivity screen
as §1, §2

[11] = test system: LIMK1
Description: KINOMEscan™ selectivity screen
as §1, §2

[12] = test system: LATS2
Description: KINOMEscan™ selectivity screen
as §3, §2

[13] = test system: CASK
Description: KINOMEscan™ selectivity screen
as §3, §2

[14] = test system: CAMK2B
Description: KINOMEscan™ selectivity screen
as §3, §2

[15] = test system: RSK3(Kin.Dom.1-N-terminal)
Description: KINOMEscan™ selectivity screen
as §3, §2

[16] = test system: WNK4
Description: as §3, §2

[17] = test system: STK16
Description: KINOMEscan™ selectivity screen
The kinases were produced in HEK-293 cells and subsequently tagged with DNA for qPCR detection. Streptavidin-coated magnetic beads were treated with biotinylated small molecule ligands to generate affinity resins for kinase
as §2

[18] = test system: p38-alpha
Description: KINOMEscan™ selectivity screen
as §3, §2

[19] = test system: KIT(V559D,V654A)
Description: KINOMEscan™ selectivity screen
as §1, §2

[20] = test system: JAK1(JH2domain-pseudokinase)
Description: KINOMEscan™ selectivity screen
as §1, §2

[21] = test system: MLK2
Description: KINOMEscan™ selectivity screen
as §1, §2

[22] = test system: DDR2
Description: KINOMEscan™ selectivity screen
as §1, §2

[23] = test system: PAK2
Description: KINOMEscan™ selectivity screen
as §1, §2

[24] = test system: RPS6KA4(Kin.Dom.1-N-terminal)
Description: KINOMEscan™ selectivity screen
as §3, §2

[25] = test system: PIKFYVE
Description: KINOMEscan™ selectivity screen
as §3, §2

[26] = test system: PCTK2
Description: KINOMEscan™ selectivity screen
as §1, §2

[27] = test system: ABL1(Q252H)-phosphorylated
Description: KINOMEscan™ selectivity screen
as §1, §2

[28] = test system: PKN2
Description: KINOMEscan™ selectivity screen
as §1, §2

[29] = test system: HPK1
Description: KINOMEscan™ selectivity screen
as §1, §2

[30] = test system: ABL1-phosphorylated
Description: KINOMEscan™ selectivity screen
as §1, §2

[31] = test system: NEK10
Description: KINOMEscan™ selectivity screen
as §1, §2

[32] = test system: SRPK2
Description: KINOMEscan™ selectivity screen
(§4) The assay was perfor med at DiscoveRx Corporation according the methods published previously5. […] The kinases were produced in HEK-293 cells and subsequently tagged with DNA for qPCR detection. Streptavidin-coated magnetic beads were treated with biotinylated small molecule ligands to generate affinity resins for kinase
as §2

[33] = test system: FLT3(D835V)
Description: KINOMEscan™ selectivity screen
as §1, §2

[34] = test system: PIP5K2C
Description: KINOMEscan™ selectivity screen
as §3, §2

[35] = test system: ERK5
Description: KINOMEscan™ selectivity screen
as §3, §2

[36] = test system: CDC2L2
Description: KINOMEscan™ selectivity screen
as §3, §2

[37] = test system: WNK2
Description: KINOMEscan™ selectivity screen
as §4, §2

[38] = test system: IKK-alpha
Description: KINOMEscan™ selectivity screen
as §1, §2

[39] = test system: SIK2
Description: KINOMEscan™ selectivity screen
as §3, §2

[40] = test system: YANK2
Description: KINOMEscan™ selectivity screen
as §3, §2

[41] = test system: JAK2(JH1domain-catalytic)
Description: KINOMEscan™ selectivity screen
as §3, §2

[42] = test system: CAMK4
Description: KINOMEscan™ selectivity screen
as §1, §2

[43] = test system: GAK
Description: KINOMEscan™ selectivity screen
as §4, §2

[44] = test system: EPHB3
Description: KINOMEscan™ selectivity screen
as §4, §2

[45] = test system: INSRR
Description: KINOMEscan™ selectivity screen
as §1, §2

[46] = test system: FLT4
Description: KINOMEscan™ selectivity screen
as §1, §2

[47] = test system: TAOK2
Description: KINOMEscan™ selectivity screen
Briefly, Kinase-tagged T7 phage strains were grown in parallel in an E. coli host derived from the BL21 strain. E. coli were grown to log-phase and infected with T7 phage from a frozen stock and incubated with shaking at 32°C until lysis (90-150 minutes). The kinases were produced in HEK-293 cells and subsequently tagged with DNA for qPCR detection.
After wash with PBS buffer containing 0.05% Tween 20, the beads were incubated in elution buffer (PBS containing 0.05 % Tween 20 and 0.5 μM non-biotinylated affinity ligand) for 30 minutes at room temperature. The kinase concentration in the eluates was measured by qPCR.

[48] = test system: MEK4
Description: KINOMEscan™ selectivity screen
as §1, §2

[49] = test system: PIK3CA(Q546K)
Description: KINOMEscan™ selectivity screen
as §3, §2

[50] = test system: PIM3
Description: KINOMEscan™ selectivity screen
as §1, §2

[51] = test system: ABL1(F317L)-phosphorylated
Description: KINOMEscan™ selectivity screen
as §1, §2

[52] = test system: CSNK1G1
Description: KINOMEscan™ selectivity screen
as §1, §2

[53] = test system: SLK
Description: KINOMEscan™ selectivity screen
as §1, §2

Oc1cc(-c2ccccc2)c2ccccc2n1 [G7, 4-phenylquinolin-2(1H)-one] was tested, and the “Percent Control” value [1] was 83%, the “Percent Control” value [2] was 64% and the “Percent Control” value [3] was 77%. For the same molecule, the “Percent Control” value [4] was 58%, the “Percent Control” value [5] was 96% and the “Percent Control” value [6] was 98%. For the same molecule, the “Percent Control” value [7] was 80%, the “Percent Control” value [8] was 100% and the “Percent Control” value [9] was 92%. The “Percent Control” value [10] was 50%, the “Percent Control” value [11] was 100% and the “Percent Control” value [12] was 23%. The “Percent Control” value [13] was 89%, the “Percent Control” value [14] was 92% and the “Percent Control” value [15] was 69%. For the same molecule, the “Percent Control” value [16] was 88%, the “Percent Control” value [17] was 75% and the “Percent Control” value [18] was 83%. The “Percent Control” value [19] was 48%, the “Percent Control” value [20] was 5.5% and the “Percent Control” value [21] was 100%. The “Percent Control” value [22] was 87%, the “Percent Control” value [23] was 68% and the “Percent Control” value [24] was 61%. The “Percent Control” value [25] was 74%, the “Percent Control” value [26] was 99% and the “Percent Control” value [27] was 33%. The “Percent Control” value [28] was 89%, the “Percent Control” value [29] was 98% and the “Percent Control” value [30] was 73%. For the same molecule, the “Percent Control” value [31] was 66%, the “Percent Control” value [32] was 84% and the “Percent Control” value [33] was 7.6%. For the same molecule, the “Percent Control” value [34] was 83%, the “Percent Control” value [35] was 100% and the “Percent Control” value [36] was 88%. The “Percent Control” value [37] was 84%, the “Percent Control” value [38] was 92% and the “Percent Control” value [39] was 78%. For the same molecule, the “Percent Control” value [40] was 100%, the “Percent Control” value [41] was 61% and the “Percent Control” value [42] was 100%. For the same molecule, the “Percent Control” value [43] was 56%, the “Percent Control” value [44] was 96% and the “Percent Control” value [45] was 64%. The “Percent Control” value [46] was 72%, the “Percent Control” value [47] was 93% and the “Percent Control” value [48] was 93%. The “Percent Control” value [49] was 83%, the “Percent Control” value [50] was 64% and the “Percent Control” value [51] was 64%. The “Percent Control” value [52] was 89% and the “Percent Control” value [53] was 89%.
